Measurements reported in article PMC3729039 (Molecular cancer therapeutics, 2013).

Assays:
[1] = target: T1, full-length human progesterone receptor-beta (PRβ) (Homo sapiens, UniProt P06401); assay: PR transcriptional activity, PRE luciferase reporter in LNCaP cells; assay type: cell-based; settings: 10 µM, 10 nM 4-pregnene-3,20 dione, 48 hours
T1 sequence (P06401 1-933): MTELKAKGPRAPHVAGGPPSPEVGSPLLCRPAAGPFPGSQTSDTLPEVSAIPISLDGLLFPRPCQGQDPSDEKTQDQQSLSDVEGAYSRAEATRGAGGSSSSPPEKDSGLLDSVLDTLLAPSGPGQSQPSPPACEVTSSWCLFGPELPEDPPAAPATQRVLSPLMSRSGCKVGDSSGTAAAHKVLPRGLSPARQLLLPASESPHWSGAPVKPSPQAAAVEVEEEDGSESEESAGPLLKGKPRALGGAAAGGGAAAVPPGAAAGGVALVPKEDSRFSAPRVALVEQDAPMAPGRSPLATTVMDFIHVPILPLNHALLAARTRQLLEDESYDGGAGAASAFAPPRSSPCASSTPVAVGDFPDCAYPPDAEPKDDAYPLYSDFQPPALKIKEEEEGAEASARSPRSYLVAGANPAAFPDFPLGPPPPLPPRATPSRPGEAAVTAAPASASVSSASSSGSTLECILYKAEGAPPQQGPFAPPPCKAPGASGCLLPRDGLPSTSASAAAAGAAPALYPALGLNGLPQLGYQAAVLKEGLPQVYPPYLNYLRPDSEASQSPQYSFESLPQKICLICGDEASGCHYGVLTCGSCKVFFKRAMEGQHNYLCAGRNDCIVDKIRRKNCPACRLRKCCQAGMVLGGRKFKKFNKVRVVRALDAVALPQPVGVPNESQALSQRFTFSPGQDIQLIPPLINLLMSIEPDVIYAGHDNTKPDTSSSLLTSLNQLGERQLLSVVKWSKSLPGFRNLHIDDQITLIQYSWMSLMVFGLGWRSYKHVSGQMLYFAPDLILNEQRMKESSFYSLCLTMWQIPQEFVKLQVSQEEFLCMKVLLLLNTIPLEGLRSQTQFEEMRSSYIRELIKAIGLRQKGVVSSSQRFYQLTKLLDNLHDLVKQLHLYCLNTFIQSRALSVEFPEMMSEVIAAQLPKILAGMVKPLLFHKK

[2] = target: recombinant human full-length ERα (Homo sapiens, UniProt P03372); assay: In vitro ligand competitor assay; assay type: binding; settings: fluorescence polarization competitor assay
Chain of recombinant human full-length ERα (P03372 whole entry): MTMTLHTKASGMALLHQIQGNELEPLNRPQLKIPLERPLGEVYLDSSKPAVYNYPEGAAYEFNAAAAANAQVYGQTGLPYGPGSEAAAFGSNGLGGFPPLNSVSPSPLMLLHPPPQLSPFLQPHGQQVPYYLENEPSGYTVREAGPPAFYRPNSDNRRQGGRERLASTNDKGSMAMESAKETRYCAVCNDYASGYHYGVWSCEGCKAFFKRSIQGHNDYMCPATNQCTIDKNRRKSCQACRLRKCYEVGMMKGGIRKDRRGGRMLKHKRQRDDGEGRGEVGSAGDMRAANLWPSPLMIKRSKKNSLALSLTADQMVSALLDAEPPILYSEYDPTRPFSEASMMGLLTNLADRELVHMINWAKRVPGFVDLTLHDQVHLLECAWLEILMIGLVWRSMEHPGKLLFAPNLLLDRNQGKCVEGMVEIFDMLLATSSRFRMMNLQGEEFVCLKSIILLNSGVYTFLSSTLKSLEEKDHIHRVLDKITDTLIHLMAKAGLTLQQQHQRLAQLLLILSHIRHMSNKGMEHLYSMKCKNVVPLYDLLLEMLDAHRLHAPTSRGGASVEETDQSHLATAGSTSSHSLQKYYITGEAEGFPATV

LNCaP95 cells = assay: LNCaP95 cell growth/viability
[3] = test system: LNCaP human prostate cancer cells; assay: Androgen-dependent proliferation of LNCaP cells; assay type: cell-based; settings: 0.1 nM R1881
[4] = test system: PC3 human prostate cancer cells; assay: Proliferation of PC3 cells; assay type: cell-based; settings: PC3, 0.1 nM R1881
LNCaP cells = assay: Viability assay, LNCaP; assay type: cell-based, human; settings: treated for 4 days
[5] = target: T2, full-length human glucocorticoid receptor (GR) (Homo sapiens, UniProt P04150); assay: GR transcriptional activity, GRE reporter in LNCaP cells; settings: 10 µM, 10 nM dexamethasone, 48 hours
T2 sequence (P04150 1-777): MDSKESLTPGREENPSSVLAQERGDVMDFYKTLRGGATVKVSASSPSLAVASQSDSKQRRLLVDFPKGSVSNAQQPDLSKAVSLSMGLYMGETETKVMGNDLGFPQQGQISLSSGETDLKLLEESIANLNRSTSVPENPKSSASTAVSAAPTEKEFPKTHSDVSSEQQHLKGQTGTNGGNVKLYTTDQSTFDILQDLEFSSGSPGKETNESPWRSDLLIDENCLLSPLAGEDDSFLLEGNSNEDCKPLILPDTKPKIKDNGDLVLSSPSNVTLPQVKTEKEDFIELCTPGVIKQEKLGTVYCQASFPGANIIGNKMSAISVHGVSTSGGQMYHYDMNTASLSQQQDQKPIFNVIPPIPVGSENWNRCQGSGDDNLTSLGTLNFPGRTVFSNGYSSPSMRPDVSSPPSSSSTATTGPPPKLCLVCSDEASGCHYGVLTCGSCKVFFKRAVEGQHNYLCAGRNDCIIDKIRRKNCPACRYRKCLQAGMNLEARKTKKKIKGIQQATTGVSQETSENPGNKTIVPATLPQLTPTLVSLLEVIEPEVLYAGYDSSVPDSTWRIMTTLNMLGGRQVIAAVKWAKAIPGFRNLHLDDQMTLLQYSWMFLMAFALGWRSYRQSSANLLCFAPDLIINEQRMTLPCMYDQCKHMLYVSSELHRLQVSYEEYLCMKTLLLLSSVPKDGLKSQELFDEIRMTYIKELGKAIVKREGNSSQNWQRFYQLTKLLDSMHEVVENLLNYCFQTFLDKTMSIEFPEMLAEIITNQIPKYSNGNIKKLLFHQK

PC3 cells = assay: Viability assay, PC3; assay type: cell-based, human; settings: PC3, treated for 3 days
recombinant human PR LBD = target: T3, recombinant human PR LBD (Homo sapiens, UniProt P06401); assay: In vitro ligand competitor assay; assay type: binding
T3 sequence (P06401 679-913 limits assumed): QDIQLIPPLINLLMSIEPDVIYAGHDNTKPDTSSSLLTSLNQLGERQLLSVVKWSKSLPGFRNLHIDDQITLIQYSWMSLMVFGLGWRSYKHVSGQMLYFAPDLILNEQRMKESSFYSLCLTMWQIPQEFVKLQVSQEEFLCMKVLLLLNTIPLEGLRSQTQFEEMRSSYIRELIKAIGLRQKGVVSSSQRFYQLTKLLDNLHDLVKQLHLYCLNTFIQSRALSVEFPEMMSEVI

VCaP cells = assay: Viability assay, VCaP; assay type: cell-based; settings: VCaP (wild-type AR), treated for 5 days
[6] = test system: seminal vesicles (androgen-dependent tissue); assay: In vivo effects on androgen-dependent tissue in intact male mice; design: species or system NOD-SCID mice; settings: mature male mice, 10 mg/kg oral gavage, 13 daily doses
[7] = test system: PSA, FKBP5 and TMPRSS2 transcripts; assay: qRT-PCR of androgen-regulated genes in VCaP cells; assay type: cell-based; settings: 10 µM, 1 nM R1881, 16 hours

| Structure (SMILES) | effect on PR transcriptional activity induced by Preg [1] | competition with fluoromone for ERα [2] | effect on cell growth/viability (LNCaP95 cells) | effect of androgen on proliferation [3] | effect of androgen on proliferation [4] | cytotoxicity (viability assay) (LNCaP cells) | effect on transcriptional activity of GR induced by dexamethasone [5] | cytotoxicity (viability assay) (PC3 cells) | EC50 (recombinant human PR LBD) | cytotoxicity (viability assay) (VCaP cells) | testes weight [6] | effect on androgen-induced levels of PSA transcript [7] | effect on androgen-induced levels of transcript for FKBP5 and TMPRSS2 [7] |
| --- | --- | --- | --- | --- | --- | --- | --- | --- | --- | --- | --- | --- | --- |
| CC#C[C@]1(O)CC[C@H]2[C@@H]3CCC4=CC(=O)CCC4=C3[C@@H](c3ccc(N(C)C)cc3)C[C@@]21C [RU486] | inhibited | – | – | – | – | – | – | – | – | – | – | – | – |
| C[C@]1(O)CC[C@H]2[C@@H]3CCC4=CC(=O)CCC4=C3C=C[C@@]21C [R1881] | – | none of the AR ligands (R1881, BIC and the diterpenoids) were efficient in competing | not altered | led to increased proliferation | did not alter their proliferation | – | – | – | – | – | – | – | – |
| CC(O)(CS(=O)(=O)c1ccc(F)cc1)C(=O)Nc1ccc(C#N)c(C(F)(F)F)c1 (stereo not drawn) [BIC, bicalutamide] | inhibited | – | not altered | – | – | no indication of cytotoxicity | had no effect | no indication of cytotoxicity | 5.1 µM | no indication of cytotoxicity | no effect on the weight of testis | neither BIC or any of the diterpenoids significantly reduced these levels | significantly blocked |
